Here are results for 19 compounds from patent US6355633B1, “Aryl sulfonic acids and derivatives as FSH antagonists” (American Home Products Corporation, priority 1999, dated 2002).

pIC50: −log10 of the molar value.

In test [1] the test system is FSH-induced changes in ovarian follicular maturation. Briefly: Immature Rat Test Procedure (FSH-induced organ wet weight). As to conditions: immature rats, twice daily for three days with half-maximal dose of hFSH; for IC50 (mg/Kg) ovaries: ovarian wet weight; for IC50 (mg/Kg) uterus: uterine wet weight. Type of test: in vivo. Here is the method:
Immature Rat Test Procedure
In order to assess the ability of compounds to affect FSH-induced changes in ovarian follicular maturation in vivo, immature rats (18 days of age) are treated twice daily for three days with compound in the presence of a half-maximal dose of purified human FSH. Animals are treated via the i.p. or p.o. routes. On the fourth day following treatment, animals are euthanized and the ovaries, uterus and spleen (the spleen is a control tissue that should not respond to FHS stimulation) collected for wet weight determination. In each experiment animals treated with vehicle alone or FSH alone are used as negative and positive controls, respectively.

The target in test [2] is T1, FSH receptor (Homo sapiens, UniProt P23945).
T1 sequence (P23945 18-695): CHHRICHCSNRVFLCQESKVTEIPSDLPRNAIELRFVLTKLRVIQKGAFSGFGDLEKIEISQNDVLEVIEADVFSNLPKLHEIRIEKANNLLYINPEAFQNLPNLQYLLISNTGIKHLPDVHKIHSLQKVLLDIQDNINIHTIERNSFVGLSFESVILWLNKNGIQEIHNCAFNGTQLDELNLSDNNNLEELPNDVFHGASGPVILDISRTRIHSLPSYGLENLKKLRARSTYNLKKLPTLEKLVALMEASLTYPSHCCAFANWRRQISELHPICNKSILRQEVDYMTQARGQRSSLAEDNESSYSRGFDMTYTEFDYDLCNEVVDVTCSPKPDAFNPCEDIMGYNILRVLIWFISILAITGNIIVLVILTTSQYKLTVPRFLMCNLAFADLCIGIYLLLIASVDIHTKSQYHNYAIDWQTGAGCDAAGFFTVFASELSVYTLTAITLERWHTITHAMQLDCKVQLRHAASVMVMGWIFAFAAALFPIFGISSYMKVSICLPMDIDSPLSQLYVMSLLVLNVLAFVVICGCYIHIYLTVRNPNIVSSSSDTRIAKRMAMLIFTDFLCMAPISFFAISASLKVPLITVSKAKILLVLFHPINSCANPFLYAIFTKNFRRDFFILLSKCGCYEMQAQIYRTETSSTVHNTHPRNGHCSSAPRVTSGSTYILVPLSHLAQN
Briefly: FSH Receptor Radioligand Membrane Binding Standard Pharmacological Test Procedure. The arrangement: expressed in transfected cells. As to conditions: [125I]FSH binding to membranes of CHO cells stably transfected with the human FSH receptor. The gist of the method:
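Membranes from CHO cells stably expressing human FSH receptor; compounds pre-incubated 15 min at room temperature, then [125I]FSH added (diluted to 200 pM before addition) for 2 h at room temperature in pH 7.2 Tris buffer with protease inhibitors and BSA. Bound radioactivity after filtration counted by gamma counter; non-specific binding defined with unlabelled human FSH.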

As for “2,2′-[(E)-1,2-Ethenediyl]bis[5-[[4-(methylthio)-3-(4-morpholinylsulfonyl)benzoyl]amino]benzenesulfonic Acid] [Example 30b]”, in test [1] (ip), the “IC50 (mg/Kg) ovaries” value turned out to be 8.1 mg/kg and the “IC50 (mg/Kg) uterus” value was 1.3 mg/kg. Moreover, in test [1] (po), the “IC50 (mg/Kg) ovaries” value came out at 23 mg/kg and the “IC50 (mg/Kg) uterus” value amounted to 10 mg/kg. The compound further showed a pIC50 in test [2] of 5.92.

Turning to `COCCOCCOc1ccc(C(=O)Nc2ccc(/C=C/c3ccc(NC(=O)c4ccc(OCCOCCOC)c(S(=O)(=O)N5CCOCC5)c4)cc3S(=O)(=O)O)c(S(=O)(=O)O)c2)cc1S(=O)(=O)N1CCOCC1` [Example 30a, 2,2′-[(E)-1,2-Ethenediyl]bis[5-[[4-[2-(2-methoxyethoxy)ethoxy]-3-(4-morpholinylsulfonyl)benzoyl]amino]benzenesulfonic Acid]], in test [2], the pIC50 is 5.80.

`CS(=O)(=O)c1ccc(C(=O)Nc2ccc(/C=C/c3ccc(NC(=O)c4ccc(S(C)(=O)=O)c([N+](=O)[O-])c4)cc3S(=O)(=O)O)c(S(=O)(=O)O)c2)cc1[N+](=O)[O-]` [Example 30c, 2.2′-[(E)-1,2-Ethenediyl]bis[5-[[(4-methylsulfonyl)-3-(nitro)-benzoyl]amino]benzenesulfonic Acid]]: the pIC50 in test [2] was 5.80.

For `CS(=O)(=O)c1ccc(C(=O)Nc2ccc(/C=C/c3ccc(NC(=O)c4ccc(S(C)(=O)=O)c(S(=O)(=O)N5CCOCC5)c4)cc3S(=O)(=O)O)c(S(=O)(=O)O)c2)cc1S(=O)(=O)N1CCOCC1` [Example 30d, 2,2′-[(E)-1,2-Ethenediyl]bis[5-[[4-(methylsulfonyl)-3-(4-morpholinylsulfonyl)benzoyl]amino]benzenesulfonic Acid]], the pIC50 in test [2] was 5.82.

In test [2], `CSc1ccc(C(=O)Nc2ccc(/C=C/c3ccc(NC(=O)c4ccc(S(C)(=O)=O)c([N+](=O)[O-])c4)cc3S(=O)(=O)O)c(S(=O)(=O)O)c2)cc1S(=O)(=O)N1CCOCC1` [Example 30e] had a negative-log IC50 (pIC50) of 5.60.

For `COCCNS(=O)(=O)c1cc(C(=O)Nc2ccc(/C=C/c3ccc(NC(=O)c4ccc(S(C)(=O)=O)c([N+](=O)[O-])c4)cc3S(=O)(=O)O)c(S(=O)(=O)O)c2)ccc1OC` [Example 30f], the negative logarithm of the IC50 (pIC50) in test [2] is 5.72.

`COc1ccc(C(=O)Nc2ccc(/C=C/c3ccc(NC(=O)c4ccc(S(C)(=O)=O)cc4)cc3S(=O)(=O)O)c(S(=O)(=O)O)c2)cc1S(=O)(=O)N1CCOCC1` [Example 30g] showed a pIC50 in test [2] of 5.80.

In test [2], `COc1ccc(C(=O)Nc2ccc(/C=C/c3ccc(NC(=O)c4ccc(OC)c(S(=O)(=O)N5CCS(=O)(=O)CC5)c4)cc3S(=O)(=O)O)c(S(=O)(=O)O)c2)cc1S(=O)(=O)N1CCS(=O)(=O)CC1` [Example 30k, 2,2′-[(E)-1,2-Ethenediyl]bis[5-[[3-[(1,1-dioxido-4-thiomorpholinyl)sulfonyl]-4-methoxybenzoyl]amino]benzenesulfonic Acid]] showed a negative logarithm of the IC50 (pIC50) of 5.70.

The compound `COCCNS(=O)(=O)c1cc(C(=O)Nc2ccc(/C=C/c3ccc(NC(=O)c4ccc(OC)c(S(=O)(=O)NCCOC)c4)cc3S(=O)(=O)O)c(S(=O)(=O)O)c2)ccc1OC` [Example 30m, 2,2′-[(E)-1,2-Ethenediyl]bis[5-[[4-methoxy-3-[[(2-methoxyethyl)amino]sulfonyl]benzoyl]amino]benzenesulfonic Acid]] showed a negative-log IC50 (pIC50) in test [2] of 5.66.

For the compound `CS(=O)(=O)c1ccc(C(=O)Nc2ccc(/C=C/c3ccc(NC(=O)c4ccc(S(C)(=O)=O)cc4)cc3S(=O)(=O)O)c(S(=O)(=O)O)c2)cc1` [Example 30q, 2,2′-[(E)-1,2-Ethenediyl]bis[5-[[4-(methylsulfonyl)benzoyl]amino]benzenesulfonic Acid]], the negative logarithm of the IC50 (pIC50) in test [2] was 5.40.

`O=C(Nc1ccc(/C=C/c2ccc(NC(=O)c3ccc(OC4CCOCC4)c(S(=O)(=O)N4CCOCC4)c3)cc2S(=O)(=O)O)c(S(=O)(=O)O)c1)c1ccc(OC2CCOCC2)c(S(=O)(=O)N2CCOCC2)c1` [Example 30r, 2,2′-[(E)-1,2-Ethenediyl]bis[5-[[3-(4-morpholinylsulfonyl)-4-[(tetrahydro-2H-pyran-4-yl)oxy]benzoyl]amino]benzenesulfonic Acid]] had a negative logarithm of the IC50 (pIC50) in test [2] of 5.96.

Compound `COc1ccc(C(=O)Nc2ccc(/C=C/c3ccc(NC(=O)c4ccc(OC)c(S(=O)(=O)N5CCOCC5)c4)cc3S(=O)(=O)O)c(S(=O)(=O)O)c2)cc1S(=O)(=O)N1CCOCC1` [Example 30s, 2,2′-[(E)-1,2-Ethenediyl]bis[5-[[4-methoxy-3-(4-morpholinylsulfonyl)benzoyl]amino]benzenesulfonic Acid]] gave a pIC50 in test [2] of 5.52.

As for `COCCOc1ccc(C(=O)Nc2ccc(/C=C/c3ccc(NC(=O)c4ccc(OCCOC)c(S(=O)(=O)N5CCOCC5)c4)cc3S(=O)(=O)O)c(S(=O)(=O)O)c2)cc1S(=O)(=O)N1CCOCC1` [Example 30t, 2,2′-[(E)-1,2-Ethenediyl]bis[5-[[4-(2-methoxyethoxy)-3-(4-morpholinylsulfony)benzoyl]amino]benzenesulfonic Acid]], the pIC50 in test [2] was 5.89.

In test [2], `CCS(=O)(=O)c1ccc(C(=O)Nc2ccc(/C=C/c3ccc(NC(=O)c4ccc(S(=O)(=O)CC)cc4)cc3S(=O)(=O)O)c(S(=O)(=O)O)c2)cc1` [Example 32f, 2,2′-[(E)-1,2-Ethenediyl]bis[5-[[4-(ethylsulfonyl)benzoyl]amino]benzenesulfonic Acid]] gave a pIC50 of 5.54.

Regarding `COc1ccc(C(=O)Nc2ccc(/C=C/c3ccc(NC(=O)c4ccc(OC)c(S(=O)(=O)N5CCSCC5)c4)cc3S(=O)(=O)O)c(S(=O)(=O)O)c2)cc1S(=O)(=O)N1CCSCC1` [Example 33d, 2,2′-[(E)-1,2-Ethenediyl]bis[5-[[4-methoxy-3-(4-thiomorpholinylsulfonyl)benzoyl]amino]benzenesulfonic Acid]], the negative-log IC50 (pIC50) in test [2] was 5.28.

`COc1ccc(C(=O)Nc2ccc(/C=C/c3ccc(NC(=O)c4ccc(OC)c(S(=O)(=O)N5CCCC5)c4)cc3S(=O)(=O)O)c(S(=O)(=O)O)c2)cc1S(=O)(=O)N1CCCC1` [Example 33e, 2,2′-[(E)-1,2-Ethenediyl]bis[5-[[4-methoxy-3-(1-pyrrolidinylsulfonyl)benzoyl]amino]benzenesulfonic Acid]] showed a negative logarithm of the IC50 (pIC50) in test [2] of 5.37.

In test [2], `COc1ccc(C(=O)Nc2ccc(/C=C/c3ccc(NC(=O)c4ccc(OC)c(S(=O)(=O)N5CCN(C(C)=O)CC5)c4)cc3S(=O)(=O)O)c(S(=O)(=O)O)c2)cc1S(=O)(=O)N1CCN(C(C)=O)CC1` [Example 34a, 2,2′-[(E)-1,2-Ethenediyl]bis[5-[[3-[(4-acetyl-1-piperazinyl)sulfonyl]-4-methoxybenzoyl]amino]benzenesulfonic Acid]] showed a pIC50 of 5.42.

Turning to `COc1ccc(C(=O)Nc2ccc(/C=C/c3ccc(NC(=O)c4ccc(OC)c(S(=O)(=O)N5CCN(C=O)CC5)c4)cc3S(=O)(=O)O)c(S(=O)(=O)O)c2)cc1S(=O)(=O)N1CCN(C=O)CC1` [Example 34b, 2,2′-[(E)-1,2-Ethenediyl]bis[5-[[3-[(4-formyl-1-piperazinyl)sulfonyl]-4-methoxybenzoyl]amino]benzenesulfonic Acid]], the negative logarithm of the IC50 (pIC50) in test [2] was 5.80.

`COc1ccc(C(=O)Nc2ccc(CCc3ccc(NC(=O)c4ccc(S(C)(=O)=O)cc4)cc3S(=O)(=O)O)c(S(=O)(=O)O)c2)cc1S(=O)(=O)N1CCOCC1` [Example 43a, 5-[[4-Methoxy-3-(4-morpholinylsulfonyl)benzoyl]amino]-2-[2-[4-[[4-(methylsulfonyl)benzoyl]amino]-2-sulfophenyl]ethyl]benzenesulfonic Acid] had a negative logarithm of the IC50 (pIC50) in test [2] of 5.70.
